Laboratory results published in the supplement of paper PMC10307832.

Tests used:
Assay in all cases: relative viability (nuclei count vs DMSO), 5 days (fraction); higher = more cells survive
Bexarotene + Navitoclax = compound: C=C(c1ccc(C(=O)O)cc1)c1cc2c(cc1C)C(C)(C)CCC2(C)C [Bexarotene] + CC1(C)CCC(c2ccc(Cl)cc2)=C(CN2CCN(c3ccc(C(=O)NS(=O)(=O)c4ccc(N[C@H](CCN5CCOCC5)CSc5ccccc5)c(S(=O)(=O)C(F)(F)F)c4)cc3)CC2)C1 [Navitoclax] (partner 0.5 µM)
How it was run: (§1)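 Medians of duplicate plates are given as relative viability. That measure is the nuclei count in treated wells divided by the count in vehicle wells. Counts were taken on 4× images of lung cancer cell lines in 1536-well plates, 5 days after pin-tool dosing the day after seeding with one drug alone or a fixed anchor-drug dose plus five library-drug doses (not always all listed) in √10 steps.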

Bexarotene + Linsitinib = compound: C=C(c1ccc(C(=O)O)cc1)c1cc2c(cc1C)C(C)(C)CCC2(C)C [Bexarotene] + C[C@]1(O)C[C@@H](c2nc(-c3ccc4ccc(-c5ccccc5)nc4c3)c3c(N)nccn32)C1 [Linsitinib] (partner 1 µM)
How it was run: as §1

Bexarotene + Alpelisib = compound: C=C(c1ccc(C(=O)O)cc1)c1cc2c(cc1C)C(C)(C)CCC2(C)C [Bexarotene] + Cc1nc(NC(=O)N2CCC[C@H]2C(N)=O)sc1-c1ccnc(C(C)(C)C(F)(F)F)c1 [Alpelisib] (partner 2 µM)
How it was run: as §1

Bexarotene + Vorinostat = compound: C=C(c1ccc(C(=O)O)cc1)c1cc2c(cc1C)C(C)(C)CCC2(C)C [Bexarotene] + O=C(CCCCCCC(=O)Nc1ccccc1)NO [Vorinostat] (partner 1 µM)
How it was run: as §1

Row | Cell Line | relative viability (Bexarotene + Navitoclax; first compound 0.08 µM) | relative viability (Bexarotene + Navitoclax; first compound 0.253 µM) | relative viability (Bexarotene + Navitoclax; first compound 0.8 µM) | relative viability (Bexarotene + Navitoclax; first compound 2.53 µM) | relative viability (Bexarotene + Navitoclax; first compound 8 µM) | relative viability (Bexarotene + Linsitinib; first compound 0.08 µM) | relative viability (Bexarotene + Linsitinib; first compound 0.253 µM) | relative viability (Bexarotene + Linsitinib; first compound 0.8 µM) | relative viability (Bexarotene + Linsitinib; first compound 2.53 µM) | relative viability (Bexarotene + Linsitinib; first compound 8 µM) | relative viability (Bexarotene + Alpelisib; first compound 0.08 µM) | relative viability (Bexarotene + Alpelisib; first compound 0.253 µM) | relative viability (Bexarotene + Alpelisib; first compound 0.8 µM) | relative viability (Bexarotene + Alpelisib; first compound 2.53 µM) | relative viability (Bexarotene + Alpelisib; first compound 8 µM) | relative viability (Bexarotene + Vorinostat; first compound 0.08 µM) | relative viability (Bexarotene + Vorinostat; first compound 0.253 µM) | relative viability (Bexarotene + Vorinostat; first compound 0.8 µM) | relative viability (Bexarotene + Vorinostat; first compound 2.53 µM) | relative viability (Bexarotene + Vorinostat; first compound 8 µM)
1 | LK-2 | 1.1 | 0.782 | 0.935 | 0.944 | 0.802 | 0.513 | 0.713 | 0.692 | 0.705 | 0.773 | 1.15 | 1.12 | 1.12 | 1.25 | 1.15 | 0.337 | 0.278 | 0.342 | 0.277 | 0.332
2 | NCI-H661 |  |  |  |  |  | 0.533 | 0.611 | 0.437 | 0.587 | 0.549 | 0.664 | 0.587 | 0.776 | 0.5 | 0.645 | 0.876 | 0.814 | 0.878 | 0.861 | 0.808
3 | HCC-366 | 1.04 | 1.15 | 1.14 | 0.975 | 1.03 | 1.1 | 0.781 | 0.774 | 0.715 | 0.635 | 0.529 | 0.408 | 0.411 | 0.489 | 0.463 | 0.361 | 0.487 | 0.329 | 0.276 | 0.328
4 | HOP-62 | 1.02 | 1.07 | 1.26 | 1.01 | 1.17 | 1.01 | 1.17 | 1.15 | 1.02 | 0.909 | 1.35 | 1.4 | 1.03 | 1.12 | 0.917 | 0.808 | 0.831 | 0.709 | 0.555 | 0.624
5 | NCI-H1944 | 1.03 | 0.97 | 0.945 | 0.972 | 0.986 | 1.5 | 1.36 | 1.4 | 1.41 | 1.19 | 1.08 | 1.05 | 0.913 | 0.954 | 0.867 | 0.74 | 0.683 | 0.669 | 0.675 | 0.532
6 | SW 1573 | 1.07 | 0.777 | 0.731 | 0.735 | 0.598 | 0.777 | 0.608 | 0.681 | 0.754 | 0.536 | 0.706 | 0.454 | 0.51 | 0.454 | 0.422 | 0.918 | 0.645 | 1.11 | 0.635 | 0.746
7 | EBC-1 | 0.43 | 0.401 | 0.333 | 0.344 | 0.369 | 0.954 | 0.89 | 0.783 | 0.929 | 1.06 | 1.22 | 0.989 | 0.756 | 0.89 | 0.868 |  |  |  |  | 
8 | SW 900 |  |  |  |  |  |  |  |  |  |  |  |  |  |  |  | 0.543 | 0.473 | 0.433 | 0.453 | 0.471
9 | NCI-H522 |  |  |  |  |  |  |  |  |  |  |  |  |  |  |  | 0.961 | 0.862 | 0.977 | 0.94 | 1.01
10 | ABC-1 |  |  |  |  |  | 0.74 | 0.77 | 0.741 | 0.683 | 0.654 | 0.714 | 0.892 | 0.949 | 0.953 | 0.87 | 1.07 | 0.883 | 0.742 |  | 1.03
11 | NCI-H1792 | 0.588 | 0.515 | 0.489 | 0.297 | 0.579 | 0.437 | 0.586 | 0.259 | 0.422 | 0.342 | 0.534 | 0.697 | 0.532 | 0.585 | 0.413 |  |  |  |  | 
12 | NCI-H1563 |  |  |  |  |  | 1.21 | 1.28 | 1.03 | 1.06 | 1.04 | 0.947 | 0.804 | 0.955 | 0.973 | 0.839 |  |  |  |  | 
13 | NCI-H1299 | 1.05 | 1.07 | 1.06 | 1.09 | 1.04 | 1.02 | 1.01 | 0.991 | 1.02 | 0.94 | 1.05 | 1.13 | 1.12 | 1.05 | 1.05 |  |  |  |  | 
14 | ChaGo-K-1 | 0.98 | 0.987 | 1.07 |  | 0.991 |  |  |  |  |  |  |  |  |  |  | 0.848 | 0.886 | 0.844 | 0.818 | 0.918
15 | NCI-H2170 | 0.578 | 0.606 | 0.615 | 0.55 | 0.559 |  |  |  |  |  | 0.762 | 0.777 | 0.782 | 0.759 | 0.66 | 0.746 | 0.913 | 0.753 | 0.699 | 0.687
16 | NCI-H2342 |  |  |  |  |  |  |  |  |  |  |  |  |  |  |  | 0.758 | 0.647 | 0.666 | 0.571 | 0.731
17 | A549 | 1.18 | 1.29 | 1.15 | 0.986 | 0.938 | 0.543 | 0.539 | 0.586 | 0.579 | 0.451 | 0.992 | 0.826 | 0.836 | 0.671 | 0.686 |  |  |  |  | 
18 | NCI-H358 |  |  |  |  |  | 0.874 | 0.699 | 0.568 | 0.778 | 0.643 | 1.07 | 0.881 | 0.579 | 1.03 | 0.923 | 0.7 | 0.798 | 0.667 | 0.934 | 0.703
19 | NCI-H650 |  |  |  |  |  | 0.869 | 0.926 | 0.793 | 0.645 | 0.83 | 1.18 | 1.06 | 1.08 | 1.06 | 1 | 0.542 | 0.497 | 0.429 | 0.457 | 0.467
20 | LCLC-103H |  |  |  |  |  | 1.24 | 1.15 | 1 | 1.06 | 1.14 | 1.03 | 0.968 | 1.04 | 1.09 | 0.993 | 0.891 | 0.976 | 0.691 | 0.771 | 0.875
21 | NCI-H1650 | 1.37 | 1.4 | 1.34 | 1.21 | 1.3 |  |  |  |  |  |  |  |  |  |  | 0.524 | 0.548 | 0.579 | 0.676 | 0.736
22 | Calu-6 | 0.804 | 0.801 | 0.694 | 0.784 | 0.827 | 1.02 | 0.886 | 0.729 | 0.91 | 0.954 | 1.12 | 0.917 | 0.934 | 0.958 | 1.05 |  |  |  |  | 
